Literature values as cited in patent US9790225B2, “4-amino-3-phenylamino-6-phenylpyrazolo[3,4-d]pyrimidine derivatives, their manufacture and their use as antiviral active substances” (Scandion Oncology A/S, priority 2011, dated 2017).

Assays:
[1] = test system: 48 rhinovirus types, coxsackie virus A21, enterovirus 70, echovirus 11; conditions: Pattick et al. 1999; cited from earlier work
[2] = in vivo; cited from earlier work
[3] = in vivo; cited from earlier work; remark: listed apart in the source
[4] = in vivo; cited from earlier work; remark: listed apart in the source
[5] = cited from earlier work

For CCOC(=O)/C=C/[C@H](C[C@@H]1CCNC1=O)NC(=O)[C@@H](CC(=O)[C@@H](NC(=O)c1cc(C)on1)C(C)C)Cc1ccc(F)cc1 [AG 7088], the “Active concentration range in cell culture” value [1] is listed as “nanomolar concentration range”.
For Cc1cc(CCCCCOc2c(Cl)cc(C3=NCCO3)cc2Cl)on1 [WIN 54954], the Metabolisation and excretion [2] is given as “fast metabolisation and excretion” and the Side effects [3] is given as “skin rash”.
In the case of CCC(=O)C(CCCCCCOc1ccc(OC)cc1Cl)C(=O)CC [arildone], the Bioavailability [4] is listed as “low bioavailability” and the Solubility [5] is listed as “Poor solubility”.
